Reference: patent US12054479B1, “Multicyclic compounds” (SLAP Pharmaceuticals LLC, priority 2022, dated 2024)

Tests used:
PARP1 [1] = target: T1, PARP1 (Homo sapiens, UniProt P09874); assay: cell-based assay (Table 1); proliferation assay (PARP inhibitors) in DLD-1 wt and DLD-1 BRCA2, CTG detection; set-up: endogenous in cells; host or cells: DLD-1 wt and DLD-1 BRCA2 (-/-); details: Table 1, results of the cell-based assay; cell line (DLD-1 wt or DLD-1 BRCA2) not given
Experimental: Proliferation Assay (PARP Inhibitors) in DLD-1 wt and DLD-1 BRCA2
DLD-1-wt and DLD-1 mutant cells are cultured in RPMI 1640+10% FBS+1% PS. The cells are harvested into culture media for 2-3 days. The cells are diluted into culture media (density 2˜3×10^6) and 40 uL of cell suspension (50 cells/well for DLD-1 wt and 50 cells/well for DLD-1 BRCA (−/−). The plates are covered and spun at rt at 1000 rpm, for 1 minute and then transferred. The plates are placed into 37° C. 5% CO2 incubator overnight. Test compounds are dissolved at 10 mM DMSO stock solution and then 40 uL of stock solution is transferred to a 384 PP-plate. A 10-point dilution is carried out by transferring 10 uL compound into 30 μL DMSO by using TECAN (EVO200) liquid handler. The plates are spun at rt at 1000 rpm for 1 minute and then shaken on a plate shaker for 2 minutes. Forty nL of diluted compound is transferred into the cell plate by using a liquid handler. After 7 days of incubation, a CTG detection assay is performed. The CTG detection assay is carried out by removing the plates from the incubators and then equilibrated at rt for 15 minutes. The CellTiter Glo reagents are thawed and equilibrated at rt. CellTiter-Glo reagent (30 μL) is added into each well, and the plates are placed at rt for 30 minutes followed by reading on EnVision. The inhibition activity is calculated using the formula: % Inhibition=100×(LumHC−LumSample)/(LumHC−LumLC).
In Table 1, ‘A’ indicates an IC50 of <0.1 μM, ‘B’ indicates an IC50 of ≥0.1 μM and <1.0 μM, and ‘C’ indicates an IC50 of ≥1.0 μM. As shown by the results in Table 1, compounds of Formula (I), including pharmaceutically acceptable salts thereof, are effective PARP1 inhibitors.

PARP1 [2] = target: T1, PARP1; assay: biochemical assay (Table 2); FP binding assay (PARP1, PARP2) with PARPi-FL; details: Table 2, results of the biochemical assay
Experimental: FP Binding Assay (PARP1, PARP2)
The PARP1 and PARP 2 protein and the PARPi-FL were purchased from BPS Bioscience. The assay buffer was 50 mM Tris pH 8.0, 0.001% Triton X-100, 10 mM MgCl2, 150 mM NaCl. The compounds were diluted into top point concentration in 384PP-plate and transferred serially into an Optiplate-384F plate. Compound (20 nL) or DMSO was added to assay plate and then 10 uL of 40 nM PARP1 or PARP2 (diluted using assay buffer) was added. The assay plate was centrifuged at 1000 rpm for 1 min and then incubated for 30 min at rt. 6 nM PARPi-FL (diluted using assay buffer) (10 uL) was added to the plate (final concentration of PARP1 and PARP2 was 20 nM, and PARPi-FL was 3 nM). After centrifuging at 1000 rpm for 1 min, the assay plate was incubated at rt 4 h. The plates were read using Envision with Excitation filter. The data analysis was done by calculating the inhibition rate using mP value using the following equation. Inhibition (%)=(1−mpC−mpL)/mpH−mpL×100%.
As shown by the results in Table 2, compounds of Formula (I), including pharmaceutically acceptable salts thereof, are effective PARP1 inhibitors.

T1 sequence (P09874 whole entry): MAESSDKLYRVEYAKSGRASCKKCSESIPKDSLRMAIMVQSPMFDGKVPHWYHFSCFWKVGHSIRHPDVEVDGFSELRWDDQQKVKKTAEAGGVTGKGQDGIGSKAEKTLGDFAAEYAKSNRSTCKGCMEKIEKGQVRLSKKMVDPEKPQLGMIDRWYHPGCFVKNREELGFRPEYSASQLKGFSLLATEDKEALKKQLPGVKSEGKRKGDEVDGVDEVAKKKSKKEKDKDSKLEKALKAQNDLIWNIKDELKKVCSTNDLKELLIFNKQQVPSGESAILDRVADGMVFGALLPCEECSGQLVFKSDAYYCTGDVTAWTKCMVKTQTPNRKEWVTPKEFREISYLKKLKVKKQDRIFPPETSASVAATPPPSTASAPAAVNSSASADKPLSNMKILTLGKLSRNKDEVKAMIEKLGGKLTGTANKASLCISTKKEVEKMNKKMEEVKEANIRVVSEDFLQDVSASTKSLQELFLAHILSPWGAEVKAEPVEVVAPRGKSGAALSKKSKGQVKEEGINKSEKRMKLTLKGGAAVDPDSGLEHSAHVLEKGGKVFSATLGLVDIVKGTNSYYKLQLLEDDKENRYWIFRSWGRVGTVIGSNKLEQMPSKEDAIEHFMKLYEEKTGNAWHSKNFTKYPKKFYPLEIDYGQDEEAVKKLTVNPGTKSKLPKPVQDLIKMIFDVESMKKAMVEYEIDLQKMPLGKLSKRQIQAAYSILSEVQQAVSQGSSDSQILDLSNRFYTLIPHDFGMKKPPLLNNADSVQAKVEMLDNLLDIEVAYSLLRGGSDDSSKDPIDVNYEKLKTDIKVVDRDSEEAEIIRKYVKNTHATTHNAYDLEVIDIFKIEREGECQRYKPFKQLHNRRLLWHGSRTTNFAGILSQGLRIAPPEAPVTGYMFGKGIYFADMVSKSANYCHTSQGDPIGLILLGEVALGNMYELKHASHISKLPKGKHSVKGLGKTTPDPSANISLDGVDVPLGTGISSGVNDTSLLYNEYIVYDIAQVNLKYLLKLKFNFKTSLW

Row | IC50 (PARP1 [1]) | SMILES | IC50 (PARP1 [2])
1 | < 100 nM | CCC1Oc2ccc(CN3CCN(c4ccc(C(=O)NC)nc4F)CC3)c(F)c2NC1=O (single isomer, unassigned) [Compound 3aa] | 
2 | < 100 nM | CCC1Oc2ccc(CN3CCN(c4ccc(C(=O)NC)nc4F)CC3)c(F)c2NC1=O (single isomer, unassigned) [Compound 3ab] | 

Row | SMILES | IC50 (PARP1 [1]) | IC50 (PARP1 [2])
3 | CNC(=O)c1ccc(N2CCN(Cc3ccc4c(c3F)NC(=O)C3(CC3)O4)CC2)c(C)n1 [Compound A8] | < 100 nM | < 5 nM
